Earlier results, collected in PMC10070485, “In silico study of HASDI (high-affinity selective DNA intercalator) as a new agent capable of highly selective recognition of the DNA sequence” (Scientific Reports, 2023).

Experiments:
[1] = test system: DNA sequences; design: method as in PMID 24446378; conditions: docking, MD, MM-PBSA, MESP
[2] = test system: DNA sequences of the d(ATGCAT)2 type; design: method as in PMID 34299405; conditions: diamine linker in the major groove
[3] = test system: DNA sequences; design: method as in PMID 31820194; conditions: MD, MM-PB(GB)SA, DFT
[4] = test system: A-T base pairs; conditions: fluorescence titrations

## Cc1cc(-c2nc3cc(F)ccc3s2)ccc1N [5F]
[1]
  DNA groove specificity: affinity only to the minor groove

## Nc1cccc2oc(-c3ccccc3)cc(=O)c12 [AMF, 5-aminoflavone]
[1]
  DNA groove specificity: stable in the minor groove of AT-rich DNA and in the major groove of GC-rich DNA

## Cc1cccc2nc3cccc(C(=O)NCCNCCNCCNC(=O)c4cccc5nc6cccc(C)c6nc45)c3nc12 [MLN944]
[2]
  DNA sequence type of greatest affinity: d(ATGCAT)2

## COc1cccc2c1C(=O)c1c(O)c3c(c(O)c1C2=O)C[C@@](O)(C(C)=O)C[C@@H]3O[C@H]1C[C@H](N)[C@H](O)[C@H](C)O1 [daunomycin]
[3]
  DNA sequence specificity: highest affinity for TC/GA rich sequences

## neomycin-Hoechst 33258-pyrene conjugate
[4]
  number of A-T base pairs selectively recognized: up to 9
